Assay results published in US6930088B2, “Conformationally constrained backbone cyclized somatostatin analogs” (Peptor Ltd., priority 1998, dated 2005).
Like-named read-outs stand apart in the source and are kept apart here. *1 amine or outer side, *2 acyl side, *3 side chain or, on linkers, in order; H or OH if unused. Where a SMILES comes first, the peptide text is derived from it. Bridges are numbered along the chain shown (N, C = ends). Where no end group is shown, it is not given here. [ ]: non-standard residue; d: D form. Phe(Nα-CH2CH2CO) = O=C([C@H](Cc1ccccc1)N(CCC(=O)[*:3])[*:1])[*:2]; N(2-aminoethyl)Phe = O=C([C@H](Cc1ccccc1)N(CCN[*:3])[*:1])[*:2]; N(2-mercaptoethyl)Gly = O=C(CN(CCS[*:3])[*:1])[*:2]; N(CH2CH2CO)Gly = O=C(CN(CCC(=O)[*:3])[*:1])[*:2]; 2Nal = N[C@@H](Cc1ccc2ccccc2c1)C(=O)O; d2Nal = N[C@H](Cc1ccc2ccccc2c1)C(=O)O; Phe(C1) = not defined here; Phe(C2) = not defined here; Phe(C3) = not defined here

Tests used:
[1] = In vitro biostability in renal homogenate (HPLC); settings: kidney or brush border membranes
Procedure: The assay was based on HPLC determination of peptide degradation as a function of time in renal homogenate at 37° C.

[2] = cited from earlier work
SSTR-3 = molecular target: T1, SSTR-3 (Homo sapiens, UniProt P32745); test: Inhibition of 125I-Tyr11-SRIF binding to membrane preparations expressing SSTR-3; settings: for IC50: Table 15, read-out: IC50 (nM) for SST-R 3
T1 construct: expressed in transfected cells
T1 sequence (P32745 whole entry): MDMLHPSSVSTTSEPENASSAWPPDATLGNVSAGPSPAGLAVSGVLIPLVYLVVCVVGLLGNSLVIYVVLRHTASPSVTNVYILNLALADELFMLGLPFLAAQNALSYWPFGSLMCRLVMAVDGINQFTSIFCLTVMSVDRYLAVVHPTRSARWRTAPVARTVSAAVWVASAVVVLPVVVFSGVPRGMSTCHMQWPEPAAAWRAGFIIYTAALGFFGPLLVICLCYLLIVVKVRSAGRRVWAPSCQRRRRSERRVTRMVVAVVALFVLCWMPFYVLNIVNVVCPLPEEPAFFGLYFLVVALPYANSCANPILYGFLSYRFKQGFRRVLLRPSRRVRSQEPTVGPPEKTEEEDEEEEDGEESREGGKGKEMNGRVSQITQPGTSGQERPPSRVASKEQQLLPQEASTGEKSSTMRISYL
Procedure: The somatostatin analogs were tested for their potency in inhibition of the binding of ^125I-Tyr^11-SRIF (based on the method described by Raynor et. al., Molecular Pharmacology, 1993, 43, 838-844) to membrane preparations expressing the transmembranal somatostatin receptors (SSTR-1, 2, 3, 4 or 5). The receptor preparations used for these tests were either from the cloned human receptors selectively and stably expressed in Chinese Hamster Ovary (CHO) cells or from cell lines naturally expressing the SSTRs. […] The binding reactions were filtered, the filters were washed and the bound radioactivity was counted in gamma counter. Non specific binding was defined as the radioactivity remaining bound in the presence of 1 μM unlabeled SRIF-14.
(§1) In order to validate positive signals of the binding tests, and to eliminate non-specific signals, samples of irrelevant peptides, such as GnRH, that were synthesized and handled using the same procedures, were tested in the same assays as negative control samples. These samples had no binding activity in any of the assays. Results are shown below in Tables 5 and 6 and FIG. 1.

SSTR-5 = molecular target: T2, SSTR-5 (Homo sapiens, UniProt P35346); test: Inhibition of 125I-Tyr11-SRIF binding to membrane preparations expressing SSTR-5; settings: for IC50: Table 15, read-out: IC50 (nM) for SST-R 5
T2 construct: expressed in transfected cells
T2 sequence (P35346 whole entry): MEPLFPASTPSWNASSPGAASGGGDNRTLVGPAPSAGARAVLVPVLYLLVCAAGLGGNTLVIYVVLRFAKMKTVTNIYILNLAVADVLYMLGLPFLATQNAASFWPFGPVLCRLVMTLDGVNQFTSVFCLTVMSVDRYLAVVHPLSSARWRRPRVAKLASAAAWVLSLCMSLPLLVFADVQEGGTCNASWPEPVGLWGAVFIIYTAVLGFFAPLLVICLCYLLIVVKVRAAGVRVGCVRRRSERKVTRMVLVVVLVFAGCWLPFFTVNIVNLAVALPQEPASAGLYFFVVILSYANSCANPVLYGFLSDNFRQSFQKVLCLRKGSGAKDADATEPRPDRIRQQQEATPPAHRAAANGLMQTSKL
Procedure: (§2) The receptor preparations used for these tests were either from the cloned human receptors selectively and stably expressed in Chinese Hamster Ovary (CHO) cells or from cell lines naturally expressing the SSTRs. […] The binding reactions were filtered, the filters were washed and the bound radioactivity was counted in gamma counter. Non specific binding was defined as the radioactivity remaining bound in the presence of 1 μM unlabeled SRIF-14.
as §1

SSTR-2 = molecular target: T3, SSTR-2 (Homo sapiens, UniProt P30874); test: Inhibition of 125I-Tyr11-SRIF binding to membrane preparations expressing SSTR-2
T3 construct: expressed in transfected cells
T3 sequence (P30874 whole entry): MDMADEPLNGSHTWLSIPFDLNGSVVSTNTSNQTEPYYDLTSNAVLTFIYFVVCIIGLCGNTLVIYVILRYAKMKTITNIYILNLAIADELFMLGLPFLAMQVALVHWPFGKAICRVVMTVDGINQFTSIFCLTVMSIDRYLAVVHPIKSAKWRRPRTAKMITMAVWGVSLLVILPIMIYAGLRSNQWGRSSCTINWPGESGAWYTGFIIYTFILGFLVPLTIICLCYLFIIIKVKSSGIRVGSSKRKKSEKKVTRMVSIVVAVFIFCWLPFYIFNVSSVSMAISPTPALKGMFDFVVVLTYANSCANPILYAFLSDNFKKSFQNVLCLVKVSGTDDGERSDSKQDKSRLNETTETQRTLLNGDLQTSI
Procedure: as §2, §1

[3] = tested on: somatostatin receptors (SSTR-1, 2, 3, 4 or 5); test: Somatostatin receptor subtype selectivity of binding; set-up: species or system human; settings: in words
Procedure: The somatostatin analogs were tested for their potency in inhibition of the binding of ^125I-Tyr^11-SRIF (based on the method described by Raynor et. al., Molecular Pharmacology, 1993, 43, 838-844) to membrane preparations expressing the transmembranal somatostatin receptors (SSTR-1, 2, 3, 4 or 5). The receptor preparations used for these tests were either from the cloned human receptors selectively and stably expressed in Chinese Hamster Ovary (CHO) cells or from cell lines naturally expressing the SSTRs. Typically, cell membranes were homogenated in Tris buffer in the presence of protease inhibitors and incubated for 30-40 minutes with ^125I-Tyr^11-SRIF with different concentrations of the tested sample. The binding reactions were filtered, the filters were washed and the bound radioactivity was counted in gamma counter. Non specific binding was defined as the radioactivity remaining bound in the presence of 1 μM unlabeled SRIF-14.
as §1

[4] = molecular target: T4, cloned human somatostatin receptor 2 (human, UniProt P30874 1-369); test: inhibition of SRIF binding, cloned human SSTR-2; head says nM, values evidently molar
T4 construct: whole, on cells; Tested as cell membrane preparations; also called SSTR-2; SSTR2
T4 sequence (P30874 whole entry): as above
Description: (§3) The receptor preparations used for these tests were either from the cloned human receptors selectively and stably expressed in Chinese Hamster Ovary (CHO) cells or from cell lines naturally expressing the SSTRs. […] The binding reactions were filtered, the filters were washed and the bound radioactivity was counted in gamma counter.

[5] = molecular target: T5, cloned human somatostatin receptor 3 (human, UniProt P32745 1-418); test: inhibition of SRIF binding, cloned human SSTR-3; head says nM, values evidently molar
T5 construct: whole, on cells; Tested as cell membrane preparations; also called SSTR-3; SSTR3
T5 sequence (P32745 whole entry): as the sequence (P32745 whole entry) above
Description: as §3

[6] = molecular target: T6, cloned human somatostatin receptor 5 (human, UniProt P35346 1-364); test: inhibition of SRIF binding, cloned human SSTR-5; head says nM, values evidently molar
T6 construct: whole, on cells; Tested as cell membrane preparations; also called SSTR-5; SSTR5
T6 sequence (P35346 whole entry): as the sequence (P35346 whole entry) above
Description: as §3

[7] = molecular target: T5, cloned human somatostatin receptor 3; test: 125I-Tyr11-SRIF displacement, membranes, cloned human SST-R3
Description: as §3

[8] = molecular target: T7, cloned human somatostatin receptor 4 (human, UniProt P31391 1-388); test: 125I-Tyr11-SRIF displacement, cloned human SSTR-R4
T7 construct: whole, on cells; Tested as cell membrane preparations; also called SSTR-4; SSTR-R4
T7 sequence (P31391 whole entry): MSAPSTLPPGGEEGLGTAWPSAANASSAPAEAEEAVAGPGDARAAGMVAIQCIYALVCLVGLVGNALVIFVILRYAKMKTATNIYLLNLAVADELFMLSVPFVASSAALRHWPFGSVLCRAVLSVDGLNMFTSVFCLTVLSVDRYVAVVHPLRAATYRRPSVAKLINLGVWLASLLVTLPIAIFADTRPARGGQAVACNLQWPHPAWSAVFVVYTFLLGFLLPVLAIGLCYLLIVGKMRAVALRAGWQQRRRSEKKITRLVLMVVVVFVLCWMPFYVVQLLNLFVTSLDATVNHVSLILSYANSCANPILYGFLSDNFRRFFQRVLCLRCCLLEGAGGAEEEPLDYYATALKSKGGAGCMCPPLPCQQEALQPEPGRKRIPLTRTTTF

[9] = IV, from Sandostatin overview, Sandoz 1992
[10] = SC, from Sandostatin overview, Sandoz 1992
[11] = Table 15, read-out: IC50 (nM) for SST-R 2

C[C@@H](O)[C@@H]1NC(=O)[C@H](CCCCN)NC(=O)[C@@H](Cc2c[nH]c3ccccc23)NC(=O)[C@H](Cc2ccccc2)NC(=O)[C@@H](NC(=O)[C@H](N)Cc2ccccc2)CSSC[C@@H](C(=O)N[C@H](CO)[C@@H](C)O)NC1=O [Octreotide]
remaining at 1 h [1]: 100% | remaining at 3 h [1]: 100% | remaining at 24 h [1]: 100% | Clearance [2, 9]: 17.6 mL/min/kg | T½β (min) circulating half life [2, 9]: 49 min | Vss (ml/kg) Volume of distribution [2, 9]: 602 mL/kg | circulation half-life ([2]; Octreotide): 40 min | Clearance [2, 10]: 17.1 mL/min/kg | F (%) Bioavailability [2, 10]: 103% | T½β (min) circulating half life [2, 10]: 40 min

NCCCC[C@H]1NC(=O)[C@@H](Cc2c[nH]c3ccccc23)NC(=O)[C@H](Cc2ccccc2)NC(=O)[C@H](Cc2ccccc2)NC(=O)[C@H](Cc2ccccc2)NC(=O)CCN([C@@H](Cc2ccccc2)C(N)=O)C1=O [PTR 3171, Phe*-Phe-Phe-(D)Trp-(D)Lys-Phe(C2)-X] (FFF[dW][dK][Phe(Nα-CH2CH2CO)]-NH2; lactam N-6)
inhibition at 1 µM (SSTR-3; SST-R3, 10^−6M, read-out: Percent inhibition of SRIF-14 binding): 87% | inhibition at 0.1 µM (SSTR-3; SST-R3, 10^−7M, read-out: Percent inhibition of SRIF-14 binding): 40% | inhibition at 0.01 µM (SSTR-3; SST-R3, 10^−8M, read-out: Percent inhibition of SRIF-14 binding): 12% | inhibition at 1 µM (SSTR-5; SST-R5, 10^−6M, read-out: Percent inhibition of SRIF-14 binding): 60% | inhibition at 0.1 µM (SSTR-5; SST-R5, 10^−7M, read-out: Percent inhibition of SRIF-14 binding): 10% | inhibition at 0.01 µM (SSTR-5; SST-R5, 10^−8M, read-out: Percent inhibition of SRIF-14 binding): 18% | remaining at 1 h [1]: 100% | remaining at 3 h [1]: 100% | remaining at 24 h [1]: 100%

C[C@@H](O)[C@@H]1NC(=O)[C@H](CCCCN)NC(=O)[C@@H](Cc2c[nH]c3ccccc23)NC(=O)[C@H](Cc2c[nH]c3ccccc23)NC(=O)[C@H](Cc2ccccc2)NC(=O)[C@@H](N)CSSCCN(CC(N)=O)C(=O)[C@H](Cc2ccccc2)NC1=O [PTR 3197, Cys*-Phe-Trp-(D)Trp-Lys-Thr-Phe-Gly(S2)*-NH2] (H-CFW[dW]KTF[N(2-mercaptoethyl)Gly]-NH2; disulfide 1-8; N-terminus assumed)
IC50 (SSTR-2; [11]): 4 nM | IC50 (SSTR-5): 1 nM

C[C@@H](O)[C@@H]1NC(=O)[C@H](CCCCN)NC(=O)[C@@H](Cc2c[nH]c3ccccc23)NC(=O)[C@H](Cc2c[nH]c3ccccc23)NC(=O)[C@H](Cc2ccccc2)NC(=O)[C@@H](NC(=O)[C@H](N)Cc2ccccc2)CSSCCN(CC(N)=O)C(=O)[C@H](Cc2ccccc2)NC1=O [PTR 3207, (D)Phe-Cys*-Phe-Trp-(D)Trp-Lys-Thr-Phe-Gly(S2)*-NH2]
IC50 (SSTR-2; [11]): 1 to 12 nM

C[C@@H](O)[C@@H]1NC(=O)[C@H](CCCCN)NC(=O)[C@@H](Cc2c[nH]c3ccccc23)NC(=O)[C@H](Cc2c[nH]c3ccccc23)NC(=O)[C@H](Cc2ccccc2)NC(=O)CSSCCN(CC(N)=O)C(=O)[C@H](Cc2ccccc2)NC1=O [PTR 3211, Mercapto-acetic-acid(*)-Phe-Trp-(D)Trp-Lys-Thr-Phe-Gly(S2)*-NH2]
IC50 (SSTR-2; [11]): 37 nM | IC50 (SSTR-3): 12 to 37 nM

C[C@@H](O)[C@@H]1NC(=O)[C@H](CCCCN)NC(=O)[C@@H](Cc2c[nH]c3ccccc23)NC(=O)[C@H](Cc2c[nH]c3ccccc23)NC(=O)[C@H](Cc2ccccc2)NC(=O)CNCCSSCCN(CC(N)=O)C(=O)[C@H](Cc2ccccc2)NC1=O [PTR 3213, Gly(S2)*-Phe-Trp-(D)Trp-Lys-Thr-Phe-Gly(S2)*-NH2]
IC50 (SSTR-2; [11]): 4 nM | IC50 (SSTR-5): 12 nM

C[C@@H](O)[C@@H]1NC(=O)[C@H](CCCCN)NC(=O)[C@@H](Cc2c[nH]c3ccccc23)NC(=O)[C@H](Cc2c[nH]c3ccccc23)NC(=O)[C@H](Cc2ccccc2)NC(=O)CCSSCCN(CC(N)=O)C(=O)[C@H](Cc2ccccc2)NC1=O [PTR 3217, 3-Thiopropanoic-acid*-Phe-Trp-(D)Trp-Lys-Thr-Phe-Gly(S2)*-NH2]
IC50 (SSTR-2; [11]): 37 nM | IC50 (SSTR-3): 100 nM

C[C@@H](O)[C@@H]1NC(=O)[C@H](CCCCN)NC(=O)[C@@H](Cc2c[nH]c3ccccc23)NC(=O)[C@H](Cc2c[nH]c3ccccc23)NC(=O)[C@H](Cc2ccccc2)NC(=O)CN(C(=O)[C@H](N)Cc2ccccc2)CCSSCCN(CC(N)=O)C(=O)[C@H](Cc2ccccc2)NC1=O [PTR 3219, (D)Phe-Gly(S2)*-Phe-Trp-(D)Trp-Lys-Thr-Phe-Gly(S2)*-NH2]
IC50 (SSTR-2): 4 nM

Phe(N2)-Tyr-(D)2Nal-Lys-Val-Gly(C2)-Thr-X ([N(2-aminoethyl)Phe]Y[d2Nal]KV[N(CH2CH2CO)Gly]T; lactam 1-6; not fully specified; printed as Phe(N2)-Tyr-(D)2Nal-Lys-Val-Gly(C2)-Thr-X) [PTR 3209]
somatostatin receptor subtype selectivity [3]: selective for the type 1 receptor

[Phe(C3)]CF[dW]KTC[Phe(N3)]-NH2 (lactam 1-8; disulfide 2-7; reading uncertain, Bicyclic analog) [PTR 3205]
IC50 [4]: 1 nM

[N(2-aminoethyl)Phe]Y[dW]KS[2Nal][N(CH2CH2CO)Gly] (lactam 1-7; not fully specified, Backbone cyclized heptapeptide) [PTR 3201]
IC50 [4]: 100 nM | IC50 [5]: 10 nM | IC50 [6]: 1 nM

FFF[dW][dK][Phe(C2)] (lactam N-6; reading uncertain, Backbone-to-end cyclized hexapeptide) [PTR 3171]
percent inhibition of SRIF-14 binding at 10^-6M [7]: 87% | percent inhibition of SRIF-14 binding at 10^-7M [7]: 40% | percent inhibition of SRIF-14 binding at 10^-8M [7]: 12%

[N(2-aminoethyl)Phe]F[dW]KT[2Nal][N(CH2CH2CO)Gly] (lactam 1-7; not fully specified, Backbone cyclized heptapeptide) [PTR 3203]
IC50 [4]: 100 nM | IC50 [5]: 10 nM | IC50 [6]: 10 nM

B1: PTR 3113 (peptide)
peptide: [Phe(C1)]FF[dW]K[N(2-aminoethyl)Phe]
modifications: lactam 1-6; reading uncertain
notes: Backbone cyclized hexapeptide somatostatin analog
percent inhibition of SRIF-14 binding at 10^-6M [7]: 94% | percent inhibition of SRIF-14 binding at 10^-7M [7]: 65% | percent inhibition of SRIF-14 binding at 10^-8M [7]: 16%

B2: PTR 3173 (peptide)
peptide: XFWWKTFG
modifications: GABA at 1 (written X); (D)Trp at 4; Gly(C3) building unit at 8 bridged by an amide to the N terminus (GABA); C-terminal amide
notes: Backbone-to-end cyclized octapeptide
percent inhibition of SRIF-14 binding at 10^-6 M [8]: 5% | percent inhibition of SRIF-14 binding at 10^-7M [8]: 5% | percent inhibition of SRIF-14 binding at 10^-8M [8]: 0% | percent inhibition of SRIF-14 binding at 10^-9 M [8]: 0% | percent inhibition of SRIF-14 binding at 10^-10 M [8]: 0% | percent inhibition of SRIF-14 binding at 10^-11 M [8]: 0% | IC50 [4]: 1 nM | IC50 [5]: 100 nM | IC50 [6]: 1 nM
